From the supplement of paper PMC10307832

Tests used:
Assay in all cases: relative viability (nuclei count vs DMSO), 5 days (fraction); higher = more cells survive
[1] = compound: C1CC1C(=O)NC2=NNC3=C2C=CC(=C3)C4=CC(=CC=C4)C(=O)NC5CC5 [XMD13-2] + Nc1ncn([C@H]2C[C@H](O)[C@@H](CO)O2)c(=O)n1 [Decitabine] (partner 2 µM)
Procedure, shortened: (§1)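 Relative viability equals treated-well nuclei counts divided by vehicle-well nuclei counts. Counts came from 4× images of lung cancer cell lines grown in 1536-well plates for 5 days after pin-tool dosing on the day after seeding. Dosing used one drug alone or a fixed anchor-drug dose plus five library-drug doses (not always all listed) in √10 steps, and values are medians of duplicate plates.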

[2] = compound: C1CC1C(=O)NC2=NNC3=C2C=CC(=C3)C4=CC(=CC=C4)C(=O)NC5CC5 [XMD13-2] + C[C@]1(O)C[C@@H](c2nc(-c3ccc4ccc(-c5ccccc5)nc4c3)c3c(N)nccn32)C1 [Linsitinib] (partner 1 µM)
Procedure, shortened: as §1

[3] = compound: C1CC1C(=O)NC2=NNC3=C2C=CC(=C3)C4=CC(=CC=C4)C(=O)NC5CC5 [XMD13-2] + O=C(c1cc(Cc2n[nH]c(=O)c3ccccc23)ccc1F)N1CCN(C(=O)C2CC2)CC1 [Olaparib] (partner 8 µM)
Procedure, shortened: as §1

[4] = compound: C1CC1C(=O)NC2=NNC3=C2C=CC(=C3)C4=CC(=CC=C4)C(=O)NC5CC5 [XMD13-2] + CS(=O)(=O)CCNCc1ccc(-c2ccc3ncnc(Nc4ccc(OCc5cccc(F)c5)c(Cl)c4)c3c2)o1 [Lapatinib] (partner 2 µM)
Procedure, shortened: as §1

| Cell Line | relative viability ([1]; first compound 0.05 µM) | relative viability ([1]; first compound 0.1581 µM) | relative viability ([1]; first compound 0.5 µM) | relative viability ([1]; first compound 1.581 µM) | relative viability ([1]; first compound 5 µM) | relative viability ([2]; first compound 0.05 µM) | relative viability ([2]; first compound 0.1581 µM) | relative viability ([2]; first compound 0.5 µM) | relative viability ([2]; first compound 1.581 µM) | relative viability ([2]; first compound 5 µM) | relative viability ([3]; first compound 0.05 µM) | relative viability ([3]; first compound 0.1581 µM) | relative viability ([3]; first compound 0.5 µM) | relative viability ([3]; first compound 1.581 µM) | relative viability ([3]; first compound 5 µM) | relative viability ([4]; first compound 0.05 µM) | relative viability ([4]; first compound 0.1581 µM) | relative viability ([4]; first compound 0.5 µM) | relative viability ([4]; first compound 1.581 µM) | relative viability ([4]; first compound 5 µM) |
| --- | --- | --- | --- | --- | --- | --- | --- | --- | --- | --- | --- | --- | --- | --- | --- | --- | --- | --- | --- | --- |
| LOU-NH91 | 0.815 | 0.844 | 0.802 | 0.837 | 0.882 | 0.985 | 0.981 | 0.966 | 0.876 | 1.1 | 0.976 | 0.958 | 0.97 | 0.869 | 0.944 | 0.809 | 0.758 | 0.725 | 0.713 | 0.746 |
| LU99A | 0.97 | 0.881 | 0.945 | 0.857 | 0.808 | 0.609 | 0.552 | 0.591 | 0.445 | 0.463 | 0.288 | 0.277 | 0.248 | 0.273 | 0.263 | 1.21 | 0.975 | 1.02 | 0.858 | 0.42 |
| LXF-289 | 0.38 | 0.377 | 0.402 | 0.399 | 0.379 | 0.941 | 0.942 | 0.967 | 0.984 | 0.986 | 1.28 | 1.03 | 1.15 | 0.99 | 1.05 | 0.923 | 0.901 | 0.905 | 0.897 | 0.834 |
| NCI-H23 | 0.271 | 0.335 | 0.329 | 0.33 | 0.301 | 0.558 | 0.579 | 0.624 | 0.537 | 0.58 | 0.336 | 0.342 | 0.365 | 0.3 | 0.281 | 1.33 | 0.964 | 0.996 | 1.09 | 1.27 |
| NCI-H322M | 0.73 | 0.718 | 0.791 |  | 0.742 | 0.963 | 0.864 | 1.07 | 0.891 | 0.891 | 0.807 | 0.848 | 0.553 |  | 1.04 | 0.641 | 0.528 | 0.593 | 0.605 | 0.724 |
| NCI-H358 | 0.248 | 0.212 | 0.22 | 0.216 | 0.18 | 0.759 | 0.764 | 0.826 | 0.663 | 0.449 | 0.72 | 0.618 | 0.667 | 0.718 | 0.61 | 0.566 | 0.463 | 0.471 | 0.404 | 0.322 |
| NCI-H460 | 0.607 | 0.513 | 0.54 | 0.552 | 0.454 | 1.01 | 0.953 | 0.973 | 0.72 | 0.997 | 0.546 | 0.493 | 0.412 | 0.526 | 0.566 | 1.23 | 0.925 | 1.27 | 0.908 | 0.0203 |
| NCI-H520 | 0.531 | 0.506 | 0.534 | 0.549 | 0.442 | 1.09 | 0.975 | 1.01 | 0.881 | 0.492 | 0.333 | 0.325 | 0.498 | 0.36 | 0.307 | 1.06 | 0.923 | 0.924 | 0.717 | 0.354 |
| NCI-H596 | 0.934 | 1.02 | 1 | 1.03 | 1.29 | 1.12 | 1.13 | 1.01 | 1.05 | 1.22 | 0.703 | 0.729 | 0.738 | 0.704 | 0.769 | 1.1 | 0.942 | 1.22 | 0.989 | 1.17 |
| NCI-H647 | 0.398 | 0.329 | 0.471 | 0.392 | 0.326 | 1.33 | 1.22 | 1.15 | 1.17 | 1.09 | 0.622 | 0.435 | 0.545 | 0.602 | 0.234 | 1.14 | 1.31 | 1.22 | 1.02 | 0.369 |
| NCI-H650 | 0.311 | 0.315 | 0.329 | 0.296 | 0.306 | 0.983 | 0.857 | 0.899 | 0.718 | 0.865 | 0.379 | 0.379 | 0.424 | 0.462 | 0.356 | 0.993 | 1.06 | 0.94 | 0.752 | 0.829 |
| NCI-H661 | 0.611 | 0.56 | 0.56 | 0.537 | 0.461 | 0.67 | 0.708 | 0.58 | 0.555 | 0.398 | 0.728 | 0.671 | 0.739 | 0.767 | 0.66 | 0.423 | 0.555 | 0.578 | 0.519 | 0.386 |
| NCI-H727 | 1.02 | 0.783 | 0.914 | 0.841 | 1 | 0.219 | 0.25 | 0.439 | 0.312 | 0.25 | 0.679 | 0.711 | 0.683 | 0.74 | 0.647 | 0.836 | 0.844 | 1.06 | 1.01 | 0.949 |
| NCI-H838 | 0.386 | 0.414 | 0.477 | 0.436 | 0.387 | 1.14 | 1.03 | 1.05 | 1.06 | 0.985 | 0.865 | 0.749 | 0.817 | 0.774 | 0.699 | 1.17 | 1.14 | 1.13 | 1.03 | 0.959 |
| NCI-H1355 | 0.358 | 0.385 | 0.386 | 0.379 | 0.375 | 0.973 | 0.834 | 0.851 | 0.825 | 0.894 | 0.755 | 0.716 | 0.807 | 0.762 | 0.773 | 1.13 | 0.942 | 1.05 | 0.997 | 1.06 |
| NCI-H1395 | 0.845 | 0.738 | 0.753 | 0.661 | 0.706 | 1.06 | 0.984 | 1 | 1.11 | 1.28 | 0.48 | 0.493 | 0.46 | 0.477 | 0.504 | 1.56 | 0.997 | 1.08 | 0.908 | 0.945 |
| NCI-H1437 | 0.604 | 0.569 | 0.541 | 0.55 | 0.578 | 1.25 | 1.09 | 1.08 | 1.04 | 1.06 | 0.61 | 0.617 | 0.64 | 0.64 | 0.634 | 0.911 | 0.849 | 0.858 | 0.793 | 0.683 |
| NCI-H1651 | 0.642 | 0.642 | 0.63 | 0.609 | 0.81 | 0.964 | 0.961 | 1.05 | 1.07 | 1.01 | 0.174 | 0.206 | 0.19 | 0.184 | 0.188 | 1.09 | 0.78 | 0.906 | 1.09 | 0.751 |
| NCI-H1666 | 0.738 | 0.734 | 0.689 | 0.666 | 0.735 | 0.869 | 0.804 | 0.741 | 0.818 | 0.86 | 0.752 | 0.736 | 0.793 | 0.742 | 0.777 | 0.63 | 0.666 | 0.979 | 0.719 | 0.441 |
| NCI-H1734 | 0.529 | 0.484 | 0.561 | 0.487 | 0.528 | 0.893 | 0.996 | 0.938 | 0.784 | 0.743 | 0.769 | 0.628 | 0.616 | 0.594 | 0.523 | 1.28 | 0.995 | 0.735 | 0.935 | 0.85 |
| NCI-H1755 | 0.703 | 0.719 | 0.665 | 0.736 | 0.667 | 1.04 | 0.942 | 1.06 | 0.963 | 1.02 | 0.878 | 0.892 | 0.94 | 0.91 | 0.84 | 1.08 | 1.09 | 1.07 | 1 | 1.09 |
| NCI-H1792 | 0.625 | 0.507 | 0.581 | 0.551 | 0.48 | 0.631 | 0.519 | 0.586 | 0.661 | 0.515 | 0.628 | 0.385 | 0.428 | 0.383 | 0.573 | 1.1 | 0.873 | 0.951 | 0.777 | 1.06 |
| NCI-H1793 | 0.517 | 0.481 | 0.581 | 0.431 | 0.507 | 0.882 | 0.811 | 0.852 | 0.713 | 0.999 | 1.23 | 0.812 | 0.95 | 0.927 | 0.983 | 0.885 | 0.609 | 1.03 | 0.601 | 0.826 |
| NCI-H1915 | 0.261 | 0.268 | 0.251 | 0.256 | 0.268 | 1.15 | 1.13 | 1.07 | 1.1 | 1.09 | 0.273 | 0.253 | 0.287 | 0.254 | 0.269 | 1.07 | 1.01 | 1 | 1 | 0.94 |
| NCI-H1944 | 0.438 | 0.436 | 0.493 | 0.474 | 0.482 | 1.24 | 1.18 | 1.26 | 1.29 | 1.34 | 0.454 | 0.402 | 0.408 | 0.55 | 0.414 | 1.01 | 0.726 | 0.95 | 1.06 | 0.746 |
| NCI-H1975 | 0.373 | 0.381 | 0.412 | 0.414 | 0.333 | 1.08 | 0.926 | 0.968 | 0.972 | 1.07 | 0.89 | 0.798 | 0.828 | 0.871 | 0.792 | 0.968 | 0.922 | 0.991 | 1.01 | 1.01 |
